We go through 66 molecules from patent US9845297B2, “Antimicrobial compounds and methods of making and using the same” (Melinta Therapeutics, Inc., priority 2009, dated 2017).

Structures are written as SMILES. Where only a bound is given, the exact number is not on record here.

The subject of this test is Eschericia coli strain ATCC25922. The experiment in a line: standard microdilution assay to determine minimum inhibitory concentrations (MICs). The following applies: Escherichia coli, ATCC25922, Eschericia coli strain ATCC25922, standard microdilution assay; read-out: E. coli ATCC25922 MIC. Type of test: cell-based. An outline of the steps:
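Broth microdilution per CLSI protocols, typically 100 µL final volume, against E. coli ATCC25922. MIC values scored as +/− against a cutoff of 16 micrograms/ml.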
(In general: In broth dilution the organism is exposed to a series of concentrations in liquid medium.)
In the case of `N=C(N)NCCCNCc1ccc(-c2c[nH]c(NC(=O)Nc3cc(F)c(F)cc3F)nc2=O)cc1` [Compound 350], the MIC (usually the lowest concentration that inhibits growth of the organism) is less than 16 µg/mL.

Take `NCCCN(CCCN)Cc1ccc(-c2c[nH]c(Nc3nc4ccccc4[nH]3)nc2=O)cc1F` [Compound 351]: the MIC is less than 16 µg/mL.

On to `CN(CCCNCc1ccc(-c2c[nH]c(NC(=O)Nc3cc(F)c(F)cc3F)nc2=O)cc1)C(=N)N` [Compound 353], for which the MIC is greater than 16 µg/mL.

With `NCCCN(CCc1ccncc1)Cc1ccc(-c2c[nH]c(NC(=O)Nc3cc(F)c(F)cc3F)nc2=O)cc1` [Compound 354], the MIC is greater than 16 µg/mL.

On to `NCCCN(CCCCO)Cc1ccc(-c2c[nH]c(NC(=O)Nc3ccccc3OC(F)(F)F)nc2=O)cc1` [Compound 355], for which the MIC is less than 16 µg/mL.

Turning to `NCCCN(CCCN)Cc1ccc(-c2c[nH]c(Nc3nc4cc(F)c(F)cc4o3)nc2=O)cc1F` [Compound 356], the MIC is less than 16 µg/mL.

Turning to `NCCCN(CCCN)Cc1ccc(-c2c[nH]c(Nc3nc4cc(C(F)(F)F)ccc4s3)nc2=O)cc1F` [Compound 357], the minimum inhibitory concentration (MIC) was greater than 16 µg/mL.

Regarding `NCCCN(CCCC(=O)O)Cc1ccc(-c2c[nH]c(NC(=O)Nc3cc(F)c(F)cc3F)nc2=O)cc1` [Compound 358], the MIC was greater than 16 µg/mL.

With `NCCCN(CCCC(=O)O)Cc1ccc(-c2c[nH]c(NC(=O)Nc3ccccc3OC(F)(F)F)nc2=O)cc1` [Compound 359], the MIC was greater than 16 µg/mL.

Turning to `COc1ccc2nc(Nc3nc(=O)c(-c4ccc(CN(CCCN)CCCN)c(F)c4)c[nH]3)[nH]c2c1` [Compound 361], the MIC was less than 16 µg/mL.

With `NCCCN(CCCN)Cc1ccc(-c2c[nH]c(Nc3nc4ccccc4o3)nc2=O)cc1F` [Compound 363], the MIC was greater than 16 µg/mL.

As for `O=C(Nc1nc(=O)c(-c2ccc(CNCCCc3cccnc3)cc2)c[nH]1)Nc1ccccc1OC(F)(F)F` [Compound 364], the MIC is greater than 16 µg/mL.

As to `CN(CCCN(CCCN)Cc1ccc(-c2c[nH]c(NC(=O)Nc3ccccc3OC(F)(F)F)nc2=O)cc1)C(=N)N` [Compound 365], the MIC was less than 16 µg/mL.

As for `CN(CCCN(CCCN)Cc1ccc(-c2c[nH]c(NC(=O)Nc3cc(F)c(F)cc3F)nc2=O)cc1)C(=N)N` [Compound 366], the MIC was greater than 16 µg/mL.

On to `O=C(Nc1nc(=O)c(CCN2CCNCC2)c[nH]1)Nc1ccccc1OC(F)(F)F` [Compound 368], for which the MIC is greater than 16 µg/mL.

On to `NCCCN1CCN(CCc2c[nH]c(NC(=O)Nc3ccccc3OC(F)(F)F)nc2=O)CC1` [Compound 369], for which the minimum inhibitory concentration (MIC) is greater than 16 µg/mL.

Regarding `COc1cc2nc(Nc3nc(=O)c(-c4ccc(CN(CCCN)CCCN)c(F)c4)c[nH]3)[nH]c2cc1OC` [Compound 370], the MIC is greater than 16 µg/mL.

In the case of `NCCCN(CCCc1cccnc1)Cc1ccc(-c2c[nH]c(NC(=O)Nc3ccccc3OC(F)(F)F)nc2=O)cc1` [Compound 372], the minimal inhibitory concentration (MIC) was greater than 16 µg/mL.

On to `O=C(Nc1nc(=O)c(-c2ccc(CNCCCc3cccnc3)cc2)c[nH]1)Nc1cc(F)c(F)cc1F` [Compound 373], for which the MIC was greater than 16 µg/mL.

For `NC(=O)NCCCNCc1ccc(-c2c[nH]c(NC(=O)Nc3ccccc3OC(F)(F)F)nc2=O)cc1` [Compound 374], the MIC is greater than 16 µg/mL.

As to `NCCCNCc1ccc(-c2c[nH]c(Nc3ccccc3C(F)(F)F)nc2=O)cc1C(F)(F)F` [Compound 376], the MIC is greater than 16 µg/mL.

As for `N[C@H]1CCN(CCc2c[nH]c(NC(=O)Nc3ccccc3OC(F)(F)F)nc2=O)C1` [Compound 381], the MIC was greater than 16 µg/mL.

Turning to `NCCCNCc1ccc(-c2c[nH]c(Nc3ccc(C(F)(F)F)cc3)nc2=O)cc1C(F)(F)F` [Compound 382], the MIC is less than 16 µg/mL.

`NCCCN(CCCN)Cc1ccc(-c2c[nH]c(Nc3nc4ccccc4s3)nc2=O)cc1F` [Compound 383]: the MIC is greater than 16 µg/mL.

With `NCCCN[C@@H]1CCN(CCc2c[nH]c(NC(=O)Nc3ccccc3OC(F)(F)F)nc2=O)C1` [Compound 384], the MIC is greater than 16 µg/mL.

Regarding `NCCCN[C@@H]1CCN(CCc2c[nH]c(NC(=O)Nc3cccc(Cl)c3Cl)nc2=O)C1` [Compound 385], the minimal inhibitory concentration (MIC) is greater than 16 µg/mL.

On to `N#Cc1ccc(NC(=O)Nc2nc(=O)c(-c3ccc(CNCCCN)c(F)c3)c[nH]2)cc1` [Compound 386], for which the MIC is greater than 16 µg/mL.

Take `NCCCNCc1ccc(-c2c[nH]c(NC(=O)Nc3cc(Cl)cc(Cl)c3)nc2=O)cc1F` [Compound 387]: the MIC is greater than 16 µg/mL.

For `NCCCNCc1ccc(-c2c[nH]c(NC(=O)Nc3cc(Cl)c(Cl)cc3Cl)nc2=O)cc1F` [Compound 388], the MIC was greater than 16 µg/mL.

With `NCCCNCc1ccc(-c2c[nH]c(NC(=O)Nc3ccc(F)c([N+](=O)[O-])c3)nc2=O)cc1F` [Compound 389], the MIC was greater than 16 µg/mL.

Take `NCCCN(CCCNC(N)=O)Cc1ccc(-c2c[nH]c(NC(=O)Nc3ccccc3OC(F)(F)F)nc2=O)cc1` [Compound 394]: the MIC is less than 16 µg/mL.

As for `NC(=O)NCCCNCc1ccc(-c2c[nH]c(NC(=O)Nc3cc(F)c(F)cc3F)nc2=O)cc1` [Compound 395], the MIC is greater than 16 µg/mL.

For the molecule `NCCCN(CCC1CC1)Cc1ccc(-c2c[nH]c(NC(=O)Nc3ccccc3OC(F)(F)F)nc2=O)cc1` [Compound 397], the minimal inhibitory concentration (MIC) was greater than 16 µg/mL.

As to `N#CCCCN(CCCN)Cc1ccc(-c2c[nH]c(NC(=O)Nc3ccccc3OC(F)(F)F)nc2=O)cc1` [Compound 398], the MIC is greater than 16 µg/mL.

With `NCCCN(CCCc1cccnc1)Cc1ccc(-c2c[nH]c(NC(=O)Nc3cc(F)c(F)cc3F)nc2=O)cc1` [Compound 399], the MIC is greater than 16 µg/mL.

Take `NCCCN(CCC1CC1)Cc1ccc(-c2c[nH]c(NC(=O)Nc3cc(F)c(F)cc3F)nc2=O)cc1` [Compound 401]: the minimal inhibitory concentration (MIC) was less than 16 µg/mL.

Take `NCCCN(CCCN)Cc1ccc(-c2c[nH]c(Nc3nc4cc(C(F)(F)F)cc(Cl)c4o3)nc2=O)cc1F` [Compound 403]: the MIC is greater than 16 µg/mL.

`NCCCN(CCCN)Cc1ccc(-c2c[nH]c(Nc3nc4ccc(C(F)(F)F)cc4o3)nc2=O)cc1F` [Compound 404]: the MIC is greater than 16 µg/mL.

Consider `NCCCN1CCN(C(=O)Cc2c[nH]c(NC(=O)Nc3ccccc3OC(F)(F)F)nc2=O)CC1` [Compound 405], for which the minimal inhibitory concentration (MIC) was greater than 16 µg/mL.

Regarding `Cc1[nH]c(NC(=O)Nc2ccccc2OC(F)(F)F)nc(=O)c1CC(=O)N1CCN(CCCN)CC1` [Compound 406], the MIC was greater than 16 µg/mL.

For `NCCCN[C@H]1CCN(C(=O)Cc2c[nH]c(NC(=O)Nc3ccccc3OC(F)(F)F)nc2=O)C1` [Compound 407], the MIC is greater than 16 µg/mL.

Turning to `NCCCN1CCN(C(=O)Cc2c[nH]c(NC(=O)Nc3cccc(Cl)c3Cl)nc2=O)CC1` [Compound 408], the MIC was greater than 16 µg/mL.

`O=C(Nc1nc(=O)c(CC(=O)N2CCNCC2)c[nH]1)Nc1ccccc1OC(F)(F)F` [Compound 409]: the minimum inhibitory concentration (MIC) was greater than 16 µg/mL.

`N[C@@H]1CCN(C(=O)Cc2c[nH]c(NC(=O)Nc3ccccc3OC(F)(F)F)nc2=O)C1` [Compound 410]: the MIC was greater than 16 µg/mL.

`NCCCNCc1ccc(-c2c[nH]c(Nc3nc4ccccc4[nH]3)nc2=O)cc1F` [Compound 412]: the MIC is less than 16 µg/mL.

As to `NCCCNCc1ccc(-c2c[nH]c(NC(=O)Nc3ccc(F)c(C(F)(F)F)c3)nc2=O)cc1F` [Compound 413], the MIC is greater than 16 µg/mL.

As to `CCOc1ccc(NC(=O)Nc2nc(=O)c(-c3ccc(CNCCCN)c(F)c3)c[nH]2)c([N+](=O)[O-])c1` [Compound 414], the minimal inhibitory concentration (MIC) is greater than 16 µg/mL.

Turning to `COc1cc([N+](=O)[O-])ccc1NC(=O)Nc1nc(=O)c(-c2ccc(CNCCCN)c(F)c2)c[nH]1` [Compound 415], the MIC was greater than 16 µg/mL.

As for `COc1ccc([N+](=O)[O-])cc1NC(=O)Nc1nc(=O)c(-c2ccc(CNCCCN)c(F)c2)c[nH]1` [Compound 416], the MIC is greater than 16 µg/mL.

As to `NCCCNCc1ccc(-c2c[nH]c(NC(=O)Nc3ccc(N4C(=O)C=CC4=O)cc3)nc2=O)cc1F` [Compound 417], the MIC was greater than 16 µg/mL.

On to `NCCCNCc1ccc(-c2c[nH]c(NC(=O)Nc3cccc(-n4cccc4)c3)nc2=O)cc1F` [Compound 418], for which the MIC was greater than 16 µg/mL.

In the case of `NCCCNCc1ccc(-c2c[nH]c(NC(=O)Nc3ccc(C(F)(F)F)cc3Cl)nc2=O)cc1F` [Compound 419], the MIC is less than 16 µg/mL.

For `NCCCNCc1ccc(-c2c[nH]c(NC(=O)NCCc3ccc(Cl)cc3Cl)nc2=O)cc1F` [Compound 420], the MIC is less than 16 µg/mL.

`NCCCNCc1ccc(-c2c[nH]c(NC(=O)NCCc3cccc(Cl)c3)nc2=O)cc1F` [Compound 421]: the MIC is greater than 16 µg/mL.

For the molecule `N=C(N)NCCCN1CCN(c2c[nH]c(NC(=O)Nc3ccccc3OC(F)(F)F)nc2=O)CC1` [Compound 422], the MIC was greater than 16 µg/mL.

In the case of `NCCCNCc1ccc(-c2c[nH]c(NC(=O)NCCc3ccc(Cl)cc3)nc2=O)cc1F` [Compound 423], the minimal inhibitory concentration (MIC) is greater than 16 µg/mL.

In the case of `Cc1nc(-c2cccc(NC(=O)Nc3nc(=O)c(-c4ccc(CNCCCN)c(F)c4)c[nH]3)c2)cs1` [Compound 424], the MIC is greater than 16 µg/mL.

With `NCCCN1CCN(c2c[nH]c(NC(=O)Nc3ccccc3OC(F)(F)F)nc2=O)CC1` [Compound 425], the MIC is greater than 16 µg/mL.

Take `CCS(=O)(=O)c1ccc2oc(Nc3nc(=O)c(-c4ccc(CN(CCCN)CCCN)c(F)c4)c[nH]3)nc2c1` [Compound 427]: the MIC was greater than 16 µg/mL.

In the case of `Cn1c(Nc2nc(=O)c(-c3ccc(CN(CCCN)CCCN)c(F)c3)c[nH]2)nc2ccccc21` [Compound 428], the MIC is greater than 16 µg/mL.

With `N=C(N)NCCCN1CCN(C(=O)Cc2c[nH]c(NC(=O)Nc3ccccc3OC(F)(F)F)nc2=O)CC1` [Compound 429], the MIC is greater than 16 µg/mL.

`N=C(N)NCCCNC1CCN(c2c[nH]c(NC(=O)Nc3ccccc3OC(F)(F)F)nc2=O)C1` (stereo not drawn) [Compound 431]: the MIC is greater than 16 µg/mL.

Consider `NCCCNCc1ccc(-c2c[nH]c(NC(=O)Nc3ccccc3OC(F)(F)F)nc2=O)c(F)c1` [Compound 432], for which the MIC was less than 16 µg/mL.

As to `NCCCNCc1ccc(-c2c[nH]c(NC(=O)Nc3cccc(Cl)c3Cl)nc2=O)c(F)c1` [Compound 433], the MIC was less than 16 µg/mL.

On to `NCCCNCc1ccc(-c2c[nH]c(NC(=O)Nc3cc(F)c(F)cc3F)nc2=O)c(F)c1` [Compound 434], for which the MIC is greater than 16 µg/mL.

Consider `NCCCNCc1ccc(-c2c[nH]c(NC(=O)NCCc3ccc(F)cc3)nc2=O)cc1F` [Compound 435], for which the MIC is greater than 16 µg/mL.
